tested on: HOME cells (human omental capillary endothelial cells); assay: Tube formation of HOME cells induced by TGFα on type-1 collagen gel; format: cell-based; conditions: Homo sapiens, Endothelial cell; final concentration 10 μg/ml; read-out: inhibition of tube formation induced by TGFα ("inhibited to")
Source text: (§1) An in-vitro angiogenesis models have been established, using human omental capillary endothelial cells (hereinafter referred to as "HOME cells"). One is the angiogenesis models in a process of wound healing formed when the HOME cells are damaged with a razor blade. Another one is a model of HOME cell migration, synthesis of a tissue plasminogen activation factor (t-PA), and HOME-cell tube formation, accelerated by TGFα.
The activity of the active ingredients to the tube formation of the HOME cells induced by TGFα was determined.
At first, 8 volume of a type 1 collagen solution (manufactured by Nitta Gelatin .), 1 volume of 10×M-199 and 1 volume of a reconstituted buffer) [200 mM Hepes, 0.05N sodium hydroxide and 260 mM sodium hydrogen carbonate] were mixed under ice cooling. The mixture was placed on plastic dishes (30 mm diameter, manufactured by Corning.) and allowed to stand still at 37° C. to make gel, thereby preparing a type-1 collagen gel.
Subsequently, the HOME cells were suspended in 10% FBS containing M-199 medium and then dispersed on the type 1 collagen gel mentioned above and incubated at 37° C.
When the HOME cells were incubated to confluent , they were transferred to 1% human serum containing M-199 mediums to which compounds (1), (2) and (4) to (12) (a final concentration: 10 μg/ml) were individually added together with TGFα (final concentration 10 ng/ml). These mediums were incubated for 3 days.
The HOME cells were also transferred to a 1% human serum containing M-199 medium with TGFα alone to prepare a control group and transferred to a 1% human serum containing M-199 medium to prepare a non-treatment group. They were also incubated for 3 days.
Two days after the incubation started, the culture mediums were exchanged. At three days, photographic picture of each dish was taken by a video camera (R5000H, Fuji, Tokyo), using a phase-contrast microscope at 200 magnification of the object. 8 views were taken for each dishes. The total tube length per one view formed by the HOME cells was measured by using a Cosmozone IS image analyzer (manufactured by Nikon).

SMILES | Tube formation remaining (%) at 10 µg/mL [%]
COc1cc(-c2oc(-c3ccc(O)c(OC)c3)c(CC(C)C)c2CC(C)C)ccc1O [Compound 10, 2,5-bis(4'-hydroxy-3'-methoxyphenyl)-3,4-diisobutylfuran] | 50 to 80
Cc1c(-c2ccc3c(c2)OCO3)oc(-c2ccc3c(c2)OCO3)c1C [Compound 6, 3,4-dimethyl-2,5-bis(3,4-methylenedioxyphenyl)-furan] | 40 to 60
COc1cc(-c2oc(-c3ccc(O)c(OC)c3)c(C)c2C)ccc1O [Compound 1] | 50 to 80
COc1cc(-c2oc(-c3cc(OC)c(O)c(OC)c3)c(C)c2C)cc(OC)c1O [Compound 11, 2,5-bis(4'-hydroxy-3',5'-dimethoxyphenyl)-3,4-dimethylfuran] | 50 to 80
Cc1c(-c2ccc3c(c2)OCCO3)oc(-c2ccc3c(c2)OCCO3)c1C [Compound 7, 3,4-dimethyl-2,5-bis(3,4-ethylenedioxyphenyl)furan] | 40 to 60
COc1ccc(-c2oc(-c3ccc(OC)c(O)c3)c(C)c2C)cc1O [Compound 8, 2,5-bis(3'-hydroxyl-4'-methoxyphenl)-3,4-dimethylfuran] | 50 to 80

same assay, conditions: Table 6; compound 10 μg/ml; TGFα 10 ng/ml; 3 days; non-treatment 0.616, control 2.045

SMILES | Total tube length/HPF
Cc1c(-c2ccc3c(c2)OCO3)oc(-c2ccc3c(c2)OCO3)c1C [Compound 6, 3,4-dimethyl-2,5-bis(3,4-methylenedioxyphenyl)-furan] | 1.240 10^3 μm
Cc1c(-c2ccc3c(c2)OCCO3)oc(-c2ccc3c(c2)OCCO3)c1C [Compound 7, 3,4-dimethyl-2,5-bis(3,4-ethylenedioxyphenyl)furan] | 1.195 10^3 μm

same assay, conditions: Table 7; compound 10 μg/ml; TGFα 10 ng/ml; 3 days; non-treatment 0.551, control 1.561

SMILES | Total length of lumen/HPF
COc1cc(-c2oc(-c3ccc(O)c(OC)c3)c(CC(C)C)c2CC(C)C)ccc1O [Compound 10, 2,5-bis(4'-hydroxy-3'-methoxyphenyl)-3,4-diisobutylfuran] | 0.655 10^3 μm
COc1cc(-c2oc(-c3ccc(O)c(OC)c3)c(C)c2C)ccc1O [Compound 1] | 0.337 10^3 μm
COc1cc(-c2oc(-c3cc(OC)c(O)c(OC)c3)c(C)c2C)cc(OC)c1O [Compound 11, 2,5-bis(4'-hydroxy-3',5'-dimethoxyphenyl)-3,4-dimethylfuran] | 0.817 10^3 μm
COc1ccc(-c2oc(-c3ccc(OC)c(O)c3)c(C)c2C)cc1O [Compound 8, 2,5-bis(3'-hydroxyl-4'-methoxyphenl)-3,4-dimethylfuran] | 0.422 10^3 μm

tested on: HOME cells (human omental capillary endothelial cells); assay: Migration of wounded HOME cells (wound healing model), with or without TGFα; format: cell-based; set-up: activity: dose or concentration left out as unconfirmed; conditions: Endothelial cell, 24 h, TGFα Free, compound added, 24 h, read-out: Cell-migration rate (% of non-treatment group)
Source text: as §1
Compound(s) as an active ingredient of the angiogenesis inhibitor of the present invention (hereinafter also simply refer:red to as "compound(s)") were evaluated with respect to an activity to cell migration with human HOME cells in which a wound healing had been made by a razor blade, and cell migration activity accelerated by TGFα.
The HOME cells to be used in this experiment were isolated from human omental fatty tissues and cultured in a M-199 medium containing 10% fetal bovine serum (FBS) over 3 to 5 generations.
TGFα was obtained from Collaborative Research Inc., Bedford, Ma.
The HOME cells were cultured as a monolayer on a collagen-coated plastic dish (35 mm .phi.) to confluent. The thus obtained HOME cells were wounded with a razor blade and then washed twice with a phosphate buffer saline solution (PBS). […] Further, HOME cells were cultured in 1% human serum containing M-199 medium with neither active ingredient nor TGFα at 37° C for 24 hours to prepare a non-treatment group.
On the dish on which the HOME cells were cultured, the numbers of migrated HOME cells were counted, which migrated to the exposed portion of the Collagen-coated plastic dish. A cell-migration rate was calculated, regarding the cell migration numbers of the non-treatment group as 100%.

SMILES | activity [%]
Cc1c(-c2ccc3c(c2)OCO3)oc(-c2ccc3c(c2)OCO3)c1C [Compound 6, 3,4-dimethyl-2,5-bis(3,4-methylenedioxyphenyl)-furan] | 45.2
COc1cc(-c2oc(-c3ccc(O)c(OC)c3)c(C)c2C)ccc1O [Compound 1] | 13.9
COc1cc(-c2oc(-c3cc(OC)c(O)c(OC)c3)c(C)c2C)cc(OC)c1O [Compound 11, 2,5-bis(4'-hydroxy-3',5'-dimethoxyphenyl)-3,4-dimethylfuran] | 81.2
Cc1c(-c2ccc3c(c2)OCCO3)oc(-c2ccc3c(c2)OCCO3)c1C [Compound 7, 3,4-dimethyl-2,5-bis(3,4-ethylenedioxyphenyl)furan] | 33.3
COc1ccc(-c2oc(-c3ccc(OC)c(O)c3)c(C)c2C)cc1O [Compound 8, 2,5-bis(3'-hydroxyl-4'-methoxyphenl)-3,4-dimethylfuran] | 69.4

same assay, conditions: Endothelial cell, 24 h, TGFα added, compound added, 24 h, read-out: Cell-migration rate (% of non-treatment group)

SMILES | activity [%]
Cc1c(-c2ccc3c(c2)OCO3)oc(-c2ccc3c(c2)OCO3)c1C [Compound 6, 3,4-dimethyl-2,5-bis(3,4-methylenedioxyphenyl)-furan] | 59.9
COc1cc(-c2oc(-c3ccc(O)c(OC)c3)c(C)c2C)ccc1O [Compound 1] | 24
COc1cc(-c2oc(-c3cc(OC)c(O)c(OC)c3)c(C)c2C)cc(OC)c1O [Compound 11, 2,5-bis(4'-hydroxy-3',5'-dimethoxyphenyl)-3,4-dimethylfuran] | 56.1
Cc1c(-c2ccc3c(c2)OCCO3)oc(-c2ccc3c(c2)OCCO3)c1C [Compound 7, 3,4-dimethyl-2,5-bis(3,4-ethylenedioxyphenyl)furan] | 31.4
COc1ccc(-c2oc(-c3ccc(OC)c(O)c3)c(C)c2C)cc1O [Compound 8, 2,5-bis(3'-hydroxyl-4'-methoxyphenl)-3,4-dimethylfuran] | 44.2

same assay, conditions: Endothelial cell, TGFα-free medium, final concentration 10 μg/ml, approximately

SMILES | inhibition at 10 µg/mL [%]
Cc1c(-c2ccc3c(c2)OCO3)oc(-c2ccc3c(c2)OCO3)c1C [Compound 6, 3,4-dimethyl-2,5-bis(3,4-methylenedioxyphenyl)-furan] | 50 to 86
COc1cc(-c2oc(-c3ccc(O)c(OC)c3)c(C)c2C)ccc1O [Compound 1] | 50 to 86
COc1ccc(-c2oc(-c3ccc(OC)c(O)c3)c(C)c2C)cc1O [Compound 8, 2,5-bis(3'-hydroxyl-4'-methoxyphenl)-3,4-dimethylfuran] | 50 to 86

tested on: HOME cells co-cultured with human esophagus cancer cells (TE-1); assay: Tube formation of HOME cells induced by human cancer cells (co-culture with TE-1 cells); format: cell-based; conditions: Table 8; compound 10 μg/ml; TE-1 co-culture; non-treatment 0.348, control 1.551
Experimental: In a co-culture of the HOME cells and human cancer cells, the activity of the compounds to the tube formation of the HOME cells induced by the human cancer cells was determined. This experiment was carried out in accordance with the co-culture method described in Morisaki, Saito, et al., "Co-culture test system of vascular endothelial cells and tunica media smooth muscle cells".
The HOME cells on the type-1 collagen gel prepared in Experiment 2 and human esophagus cancer cells (TE-1) were co-cultured to assemble a tube formation assay system. More specifically, using a plate (manufactured by Corning Co.,) having 6 holes (each hole size: 38×7 mm) in the outer vessel, 2 ml of 10% FBS containing M-199 medium was placed to each hole. The TE-1 cells were cultured in this medium. Thereafter, the medium was replaced with 2 ml of 1% FBS containing M-199 mediums which respectively contained compounds (1) and (8). Also, the medium was replaced with 1% FBS containing M-199 medium alone.
On the other hand, culture plates equipped with a Millipore filter at the inner vessel (size: 30×7 mm) bottom, were prepared. The type-1 collagen gel was placed in the inner vessel. On each of the type-1 collagen gel, 2 ml of the HOME cells suspension in the 10% FBS containing M-199 medium were planted. […]
The total tube length in the HOME cells cultured was measured in the same manner as in Experiment 2.

SMILES | Total length of lumen/HPF
COc1cc(-c2oc(-c3ccc(O)c(OC)c3)c(C)c2C)ccc1O [Compound 1] | 0.250 10^3 μm
COc1ccc(-c2oc(-c3ccc(OC)c(O)c3)c(C)c2C)cc1O [Compound 8, 2,5-bis(3'-hydroxyl-4'-methoxyphenl)-3,4-dimethylfuran] | 0.277 10^3 μm

tested on: M-5076 (mouse ovarian reticulo sarcoma); assay: In-vivo anti-tumor activity, M-5076 transplanted in C57BL6 mouse; conditions: 100 mg/kg; 6 injections, 3 times/week; day 21; control 100.0
Experimental: In-vivo anti-tumor activity of the compounds of the present invention was tested.
M-5076 (mouse ovarian reticulo sarcoma, mouse ovary cancer) was intraperitoneally (i.p.) inoculated in C57BL6 mouse, and maintained by ip passage. The obtained ascites tumor cells werediluted with PBS (-) to cellular number of 2×10^7 cells/ml. 50 μl of the dilute solution (cellular number: 1×10^6) was subcutaneously (s.c.) transplanted to the right dorsal part of C57BL6 mouse (6 week old, female). From 7 days after the tumor cell inocutation, a sample was administrated to the mouse. The sample was prepared by suspending compounds (1) and (8) in 2% Tween 80 PBS (-) solution. The suspension was subcutaneously injected to a mouse in a dose of 100 μl per mouse. Three dosages, i.e., 400 mg/kg, 200 mg/kg and 100 mg/kg were set for the injection.
Mitomycin C (MMC) and Fumagillin Were employed in positive controls. MMC was intravascularly injected 4 times every two day. Other test samples and Fumagillin were intravascularly injected 6 times in total in a rate of 3 times/week. The test was carried out using N=9 in controls and N=5 in other groups.
Twenty one days after the inocutation of the tumor cells (14 days after the next day of the initiation of the sample injection), a relative tumor proliferation rate were examined to determine the anti-tumor effect of the samples.
The relative tumor proliferation rate are indicated by the following equation.
A significant difference test was performed by the Mann-Whitney U-Test. [formula]

SMILES | Relative tumor proliferation rate (Trv/Crv(%)) [%]
COc1cc(-c2oc(-c3ccc(O)c(OC)c3)c(C)c2C)ccc1O [Compound 1] | 37.1
COc1ccc(-c2oc(-c3ccc(OC)c(O)c3)c(C)c2C)cc1O [Compound 8, 2,5-bis(3'-hydroxyl-4'-methoxyphenl)-3,4-dimethylfuran] | 59.4

same assay, conditions: 200 mg/kg; 6 injections, 3 times/week; day 21; control 100.0

SMILES | Relative tumor proliferation rate (Trv/Crv(%)) [%]
COc1cc(-c2oc(-c3ccc(O)c(OC)c3)c(C)c2C)ccc1O [Compound 1] | 37.4
COc1ccc(-c2oc(-c3ccc(OC)c(O)c3)c(C)c2C)cc1O [Compound 8, 2,5-bis(3'-hydroxyl-4'-methoxyphenl)-3,4-dimethylfuran] | 41.4

same assay, conditions: 400 mg/kg; 6 injections, 3 times/week; day 21; control 100.0

SMILES | Relative tumor proliferation rate (Trv/Crv(%)) [%]
COc1cc(-c2oc(-c3ccc(O)c(OC)c3)c(C)c2C)ccc1O [Compound 1] | 51.3
COc1ccc(-c2oc(-c3ccc(OC)c(O)c3)c(C)c2C)cc1O [Compound 8, 2,5-bis(3'-hydroxyl-4'-methoxyphenl)-3,4-dimethylfuran] | 37.4

same assay, conditions: in words

SMILES | anti-tumor activity in vivo
COc1cc(-c2oc(-c3ccc(O)c(OC)c3)c(C)c2C)ccc1O [Compound 1] | significant anti-tumor activity in vivo
COc1ccc(-c2oc(-c3ccc(OC)c(O)c3)c(C)c2C)cc1O [Compound 8, 2,5-bis(3'-hydroxyl-4'-methoxyphenl)-3,4-dimethylfuran] | significant anti-tumor activity in vivo
